{"source": "ChEMBL document CHEMBL4706737", "about": "“PROTAC-Mediated Degradation of Bruton's Tyrosine Kinase as a Therapeutic Strategy for Cancer” (ACS Med Chem Lett, 2021)", "data": [{"target": "Protein cereblon/Tyrosine-protein kinase BTK (Homo sapiens, UniProt Q06187+Q96SW2)", "sequence (Q06187 whole entry)": "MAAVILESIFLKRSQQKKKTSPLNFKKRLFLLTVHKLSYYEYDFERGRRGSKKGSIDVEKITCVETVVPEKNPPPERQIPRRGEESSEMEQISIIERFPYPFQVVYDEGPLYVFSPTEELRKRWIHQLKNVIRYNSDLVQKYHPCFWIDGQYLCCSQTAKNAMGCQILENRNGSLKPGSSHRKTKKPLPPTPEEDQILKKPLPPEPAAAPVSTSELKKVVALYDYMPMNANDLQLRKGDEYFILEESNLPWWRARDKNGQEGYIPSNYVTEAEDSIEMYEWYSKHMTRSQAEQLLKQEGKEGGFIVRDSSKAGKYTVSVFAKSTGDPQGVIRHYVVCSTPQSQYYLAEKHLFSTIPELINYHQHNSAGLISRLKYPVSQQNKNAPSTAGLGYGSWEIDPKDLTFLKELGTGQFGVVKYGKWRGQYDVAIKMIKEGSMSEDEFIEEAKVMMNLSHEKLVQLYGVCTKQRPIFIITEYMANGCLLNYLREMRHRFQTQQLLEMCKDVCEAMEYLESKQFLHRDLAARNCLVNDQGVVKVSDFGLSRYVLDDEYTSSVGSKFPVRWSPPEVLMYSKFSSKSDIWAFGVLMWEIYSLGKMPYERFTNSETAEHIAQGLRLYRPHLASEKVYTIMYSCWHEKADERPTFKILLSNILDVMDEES", "sequence (Q96SW2 whole entry)": "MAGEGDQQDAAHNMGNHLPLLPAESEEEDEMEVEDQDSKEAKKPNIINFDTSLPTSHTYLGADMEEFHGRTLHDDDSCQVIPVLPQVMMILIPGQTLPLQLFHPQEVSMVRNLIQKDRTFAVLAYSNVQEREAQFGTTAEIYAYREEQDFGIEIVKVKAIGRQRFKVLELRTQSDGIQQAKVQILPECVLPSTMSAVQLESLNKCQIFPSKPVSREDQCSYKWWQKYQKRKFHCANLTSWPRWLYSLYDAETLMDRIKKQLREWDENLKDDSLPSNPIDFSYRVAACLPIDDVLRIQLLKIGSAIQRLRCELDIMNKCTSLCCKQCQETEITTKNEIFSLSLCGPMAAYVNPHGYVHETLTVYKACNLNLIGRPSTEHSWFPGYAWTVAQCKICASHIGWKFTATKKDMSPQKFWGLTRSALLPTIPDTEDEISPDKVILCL", "assay": "Protac activity at E3 ubiquitin ligase/BTK in human Ramos cells assessed as induction of BTK degradation measured after 16 hrs by ELISA", "format": "cell-based", "units": {"DC50": "nM"}, "values": [{"compound": "NC(=O)c1c(-c2ccc(Oc3ccccc3)cc2)nn2c1NCC[C@H]2C1CCN(C(=O)CCC2CCC(N3CCN(c4ccc5c(c4)C(=O)N(C4CCC(=O)NC4=O)C5=O)CC3)CC2)CC1", "note": "(some centres not stated)", "DC50": 17}, {"compound": "NC(=O)c1c(-c2ccc(Oc3ccccc3)cc2)nn2c1NCC[C@H]2C1CCN(C(=O)c2cn(CCOCCOCCOCCOCCOCCNc3cccc4c3C(=O)N(C3CCC(=O)NC3=O)C4=O)nn2)CC1", "note": "(some centres not stated)", "DC50": 78}, {"compound": "NC(=O)c1c(-c2ccc(Oc3ccccc3)cc2)nn2c1NCC[C@H]2C1CCN(C(=O)c2cn(CCOCCOCCOCCOCCOCCOCCNc3cccc4c3C(=O)N(C3CCC(=O)NC3=O)C4=O)nn2)CC1", "note": "(some centres not stated)", "DC50": 107}, {"compound": "NC(=O)c1c(-c2ccc(Oc3ccccc3)cc2)nn2c1NCC[C@H]2C1CCN(C(=O)CCN2CCN(C(=O)CNc3ccc4c(c3)C(=O)N(C3CCC(=O)NC3=O)C4=O)CC2)CC1", "note": "(some centres not stated)", "DC50": 2.9}, {"compound": "NC(=O)c1c(-c2ccc(Oc3ccccc3)cc2)nn2c1NCC[C@H]2C1CCN(C(=O)CCc2ccc(N3CCN(c4ccc5c(c4)C(=O)N(C4CCC(=O)NC4=O)C5=O)CC3)cc2)CC1", "note": "(some centres not stated)", "DC50": 74}, {"compound": "CN(CC1CCN(C(=O)c2ccc(N3CCC(=O)NC3=O)cc2)CC1)C1CC(C(=O)N2CCC([C@@H]3CCNc4c(C(N)=O)c(-c5ccc(Oc6ccccc6)cc5)nn43)CC2)C1", "note": "(some centres not stated)", "DC50": 7.2}, {"compound": "NC(=O)c1c(-c2ccc(Oc3ccccc3)cc2)nn2c1NCC[C@H]2C1CCN(C(=O)CCCc2ccc(NC(=O)CNc3ccc4c(c3)C(=O)N(C3CCC(=O)NC3=O)C4=O)cc2)CC1", "note": "(some centres not stated)", "DC50": 28}, {"compound": "NC(=O)c1c(-c2ccc(Oc3ccccc3)cc2)nn2c1NCC[C@H]2C1CCN(C(=O)c2cn(CCOCCOCC(=O)Nc3ccc4c(c3)C(=O)N(C3CCC(=O)NC3=O)C4=O)nn2)CC1", "note": "(some centres not stated)", "DC50": 34}, {"compound": "NC(=O)c1c(-c2ccc(Oc3ccccc3)cc2)nn2c1NCC[C@H]2C1CCN(C(=O)c2cn(CCOCCOCCOCCOCCOCCNc3ccc4c(c3)C(=O)N(C3CCC(=O)NC3=O)C4=O)nn2)CC1", "note": "(some centres not stated)", "DC50": 78}, {"compound": "CN(CCC(=O)N1CCC([C@@H]2CCNc3c(C(N)=O)c(-c4ccc(Oc5ccccc5)cc4)nn32)CC1)CC1CCN(c2ccc3c(c2)C(=O)N(C2CCC(=O)NC2=O)C3=O)CC1", "note": "(some centres not stated)", "DC50": 35}, {"compound": "NC(=O)c1c(-c2ccc(Oc3ccccc3)cc2)nn2c1NCC[C@H]2C1CCN(C(=O)CCCN2CCN(C(=O)CNc3ccc4c(c3)C(=O)N(C3CCC(=O)NC3=O)C4=O)CC2)CC1", "note": "(some centres not stated)", "DC50": 35}, {"compound": "NC(=O)c1c(-c2ccc(Oc3ccccc3)cc2)nn2c1NCC[C@H]2C1CCN(C(=O)c2cn(CCOCCOCCOCCOCCNc3cccc4c3C(=O)N(C3CCC(=O)NC3=O)C4=O)nn2)CC1", "note": "(some centres not stated)", "DC50": 68}]}]}
